Reference: patent US20220370451A1, “INHIBITORS OF HUMAN IMMUNODEFICIENCY VIRUS REPLICATION” (VIIV HEALTHCARE UK ( No. 5) LIMITED, priority 2019, published 2022)
pEC50: −log10 of the molar value.

Key:
[1] = Compound cytotoxicity, XTT-based colorimetric assay; type: cell-based; settings: human; uninfected MT2 cells, day 4, XTT
Experimental: Compound cytotoxicity and the corresponding CC50 values were determined using the same protocol as described in the antiviral assay except that uninfected cells were used. Cytotoxicity was assessed on day 4 in uninfected MT2 cells by using a XTT (2,3-bis[2-Methoxy-4-nitro-5-sulfophenyl]-2H-tetrazolium-5-carboxyanilide inner salt)-based colorimetric assay (Sigma-Aldrich, St Louis, Mo.).

[2] = tested on: recombinant NL4-3 virus; assay: HIV cell culture assay (luciferase reporter antiviral activity); type: cell-based; settings: Human immunodeficiency virus 1, NL43, MT2
Experimental: HIV cell culture assay—MT=2 cells, 293T cells and the proviral DNA clone of NL4-3 virus were obtained from the NIH AIDS Research and Reference Reagent Program. MT=2 cells were propagated in RPMI 1640 media supplemented with 10% heat inactivated fetal bovine serum (FBS), […] penicillin G and up to 100 units/mL streptomycin. The 293T cells were propagated in DMEM media supplemented with 10% heat inactivated FBS, […] penicillin G and […] streptomycin. A recombinant NL4-3 proviral clone, in which a section of the nef gene was replaced with the Renilla luciferase gene, was used to make the reference virus used in these studies. The recombinant virus was prepared through transfection of the recombinant NL4-3 proviral clone into 293T cells using Transit-293 Transfection Reagent from Mirus Bio LLC (Madison, Wis.). Supernatent was harvested after 2-3 days and the amount of virus present was titered in MT=2 cells using luciferase enzyme activity as a marker by measuring luciferase enzyme activity. Luciferase was quantitated using the EnduRen Live Cell Substrate from Promega (Madison, Wis.). Antiviral activities of compounds toward the recombinant virus were quantified by measuring luciferase activity in MT=2 cells infected for 4-5 days with the recombinant virus in the presence of serial dilutions of the compound.
The 50% effective concentration (EC50) was calculated by using the exponential form of the median effect equation where (Fa)=1/[1+(ED50/drug conc.)m] (Johnson V A, Byington RT. Infectivity Assay. In Techniques in HIV Research. ed. Aldovini A, Walker B D. 71-76. New York: Stockton Press.1990). The 50% inhibitory concentration (EC50) was calculated by using the exponential form of the median effect equation where percent inhibition=1/[1+(EC50/drug concentration)m], where m is a parameter that reflects the slope of the concentration-response curve.

SMILES | CC50 at 4 days [1] | pEC50 [2]
CS(=O)(=O)Nc1nn(CC(F)F)c2c(-n3c([C@H](Cc4cc(F)cc(F)c4)NC(=O)Cn4nc(C5CC5)c5ccccc54)nc4nc(-c5ccccc5F)ccc4c3=O)ccc(Cl)c12 (atropisomer, axis not shown; (P)) [Example 18, (S)-N-(1-((3P)-3-(4-chloro-1-(2,2-difluoroethyl)-3-(methylsulfonamido)-1H-indazol-7-yl)-7-(2-fluorophenyl)-4-oxo-3,4-dihydropyrido[2,3-d]pyrimidin-2-yl)-2-(3,5-difluorophenyl)ethyl)-2-(3-cyclopropyl-1H-indazol-1-yl)acetamide] | > 500 nM | 9.77
CS(=O)(=O)Nc1nn(CC(F)F)c2c(-n3c([C@H](Cc4cc(F)cc(F)c4)NC(=O)Cn4nc(C5CC5)cc4C(F)F)nc4nc(-c5ccccc5F)ccc4c3=O)ccc(Cl)c12 (atropisomer, axis not shown; (P)) [Example 17, (S)-N-(1-((3P)-3-(4-chloro-1-(2,2-difluoroethyl)-3-(methylsulfonamido)-1H-indazol-7-yl)-7-(2-fluorophenyl)-4-oxo-3,4-dihydropyrido[2,3-d]pyrimidin-2-yl)-2-(3,5-difluorophenyl)ethyl)-2-(3-cyclopropyl-5-(difluoromethyl)-1H-pyrazol-1-yl)acetamide] | > 500 nM | 9.28
Cc1nccnc1-c1ccc2c(=O)n(-c3ccc(Cl)c4c(NS(C)(=O)=O)nn(C)c34)c([C@H](Cc3cc(F)cc(F)c3)NC(=O)Cn3ccc(C4CCC4)n3)nc2c1 (atropisomer, axis not shown; (P)) [Example 11, (S)-N-(1-((3P)-3-(4-chloro-1-methyl-3-(methylsulfonamido)-1H-indazol-7-yl)-7-(3-methylpyrazin-2-yl)-4-oxo-3,4-dihydroquinazolin-2-yl)-2-(3,5-difluorophenyl)ethyl)-2-(3-cyclobutyl-1H-pyrazol-1-yl)acetamide] | > 500 nM | 9.41
CS(=O)(=O)Nc1nn(CC(F)F)c2c(-n3c([C@H](Cc4cc(F)cc(F)c4)NC(=O)Cn4nc(C(F)F)cc4C4CC4)nc4nc(-c5ccccc5F)ccc4c3=O)ccc(Cl)c12 (atropisomer, axis not shown; (P)) [Example 16] | > 500 nM | 9.43
Cc1cc(C)nc(-c2ccc3c(=O)n(-c4ccc(Cl)c5c(NS(C)(=O)=O)nn(C)c45)c([C@H](Cc4cc(F)cc(F)c4)NC(=O)Cn4nc(C(F)(F)F)cc4C(F)(F)F)nc3c2)n1 (atropisomer, axis not shown; (P)) [Example 3, (S)-2-(3,5-bis(trifluoromethyl)-1H-pyrazol-1-yl)-N-(1-((3P)-3-(4-chloro-1-methyl-3-(methylsulfonamido)-1H-indazol-7-yl)-7-(4,6-dimethylpyrimidin-2-yl)-4-oxo-3,4-dihydroquinazolin-2-yl)-2-(3,5-difluorophenyl)ethyl)acetamide] | > 500 nM | 8.44
Cn1nc(NS(C)(=O)=O)c2c(Cl)ccc(-n3c([C@H](Cc4cc(F)cc(F)c4)NC(=O)C(C)(C)n4ccc(C5CC5)n4)nc4nc(-c5ccccc5F)ccc4c3=O)c21 (atropisomer, axis not shown; (P)) [Example 19, (S)-N-(1-((3P)-3-(4-chloro-1-methyl-3-(methylsulfonamido)-1H-indazol-7-yl)-7-(2-fluorophenyl)-4-oxo-3,4-dihydropyrido[2,3-d]pyrimidin-2-yl)-2-(3,5-difluorophenyl)ethyl)-2-(3-cyclopropyl-1H-pyrazol-1-yl)-2-methylpropanamide] | > 500 nM | 9.66
CC(C)(C(=O)N[C@@H](Cc1cc(F)cc(F)c1)c1nc2nc(-c3ccccc3F)ccc2c(=O)n1-c1ccc(Cl)c2c(NS(C)(=O)=O)nn(CC(F)F)c12)n1ccc(C2CC2)n1 (atropisomer, axis not shown; (P)) [Example 20] | > 500 nM | 9.02
Cn1nc(NS(C)(=O)=O)c2c(Cl)ccc(-n3c([C@H](Cc4cc(F)cc(F)c4)NC(=O)Cn4nc(C5CC5)c5ccccc54)nc4nc(-c5ccccc5F)ccc4c3=O)c21 (atropisomer, axis not shown; (P)) [Example 15, (S)-N-(1-((3P)-3-(4-chloro-1-methyl-3-(methylsulfonamido)-1H-indazol-7-yl)-7-(2-fluorophenyl)-4-oxo-3,4-dihydropyrido[2,3-d]pyrimidin-2-yl)-2-(3,5-difluorophenyl)ethyl)-2-(3-cyclopropyl-1H-indazol-1-yl)acetamide] | > 500 nM | 9.77
Cc1cc(F)ccc1-c1ccc2c(=O)n(-c3ccc(C)c4c(NS(C)(=O)=O)nn(C)c34)c([C@H](Cc3cc(F)cc(F)c3)NC(=O)Cn3nc(C(F)F)c4c3C(F)(F)[C@@H]3C[C@H]43)nc2c1 (atropisomer, axis not shown; (aR)) [Example 31, 2-((3bS,4aR)-3-(difluoromethyl)-5,5-difluoro-3b,4,4a,5-tetrahydro-1H-cyclopropa[3,4]cyclopenta[1,2-c]pyrazol-1-yl)-N-((S)-2-(3,5-difluorophenyl)-1-(3-(1,4-dimethyl-3-(methylsulfonamido)-1H-indazol-7-yl)-(3P)-7-(4-fluoro-2-methylphenyl)-4-oxo-3,4-dihydroquinazolin-2-yl)ethyl)acetamide] | > 500 nM | 8.64
CC(C)[C@@H](C(=O)N[C@@H](Cc1cc(F)cc(F)c1)c1nc2nc(-c3ccccc3F)ccc2c(=O)n1-c1ccc(Cl)c2c(NS(C)(=O)=O)nn(CC(F)(F)F)c12)n1ccc(C2CC2)n1 (atropisomer, axis not shown; (P)) [Example 23, N-((S)-1-((3P)-3-(4-chloro-3-(methylsulfonamido)-1-(2,2,2-trifluoroethyl)-1H-indazol-7-yl)-7-(2-fluorophenyl)-4-oxo-3,4-dihydropyrido[2,3-d]pyrimidin-2-yl)-2-(3,5-difluorophenyl)ethyl)-2-(3-cyclopropyl-1H-pyrazol-1-yl)-3-methylbutanamide] | > 500 nM | 9.68
Cc1nccnc1-c1ccc2c(=O)n(-c3ccc(C)c4c(NS(C)(=O)=O)nn(C)c34)c(C(Cc3cc(F)cc(F)c3)NC(=O)Cn3nc(C(F)F)c4c3C(F)(F)[C@@H]3C[C@H]43)nc2c1 (stereo partly drawn) [Example 6, 2-((3bS,4aR)-3-(difluoromethyl)-5,5-difluoro-3b,4,4a,5-tetrahydro-1H-cyclopropa[3,4]cyclopenta[1,2-c]pyrazol-1-yl)-N-((S)-2-(3,5-difluorophenyl)-1-(3-(1,4-dimethyl-3-(methylsulfonamido)-1H-indazol-7-yl)-(3P)-7-(3-methylpyrazin-2-yl)-4-oxo-3,4-dihydroquinazolin-2-yl)ethyl)acetamide] | > 500 nM | 10.25
Cc1nccnc1-c1ccc2c(=O)n(-c3ccc(Cl)c4c(NS(C)(=O)=O)nn(C)c34)c([C@H](Cc3cc(F)cc(F)c3)NC(=O)Cn3nc(C(F)(F)F)cc3C)nc2c1 (atropisomer, axis not shown; (P)) [Example 12, (S)-N-(1-((3P)-3-(4-chloro-1-methyl-3-(methylsulfonamido)-1H-indazol-7-yl)-7-(3-methylpyrazin-2-yl)-4-oxo-3,4-dihydroquinazolin-2-yl)-2-(3,5-difluorophenyl)ethyl)-2-(5-methyl-3-(trifluoromethyl)-1H-pyrazol-1-yl)acetamide] | > 500 nM | 9.31
